What was measured:
mouse [1] = settings: Prenatal developmental toxicity study, cd1, Oral, Gavage/Intubation, dose end: 15 GD
rabbit [2] = settings: Prenatal developmental toxicity study, new zealand white, Oral, Gavage/Intubation, dose end: 19 GD, group: maternal
rat [3] = settings: Multigenerational reproductive toxicity study, sprague dawley, Oral, Feed, dose end: 2 generation
mouse [4] = settings: Carcinogenicity, cd1, Oral, Feed, dose end: 78 week, group: systemic
rat [5] = settings: Subchronic oral toxicity in rodents, sprague dawley, Feed, dose end: 90 day, group: systemic
rat [6] = settings: Combined chronic toxicity/carcinogenicity, other, Oral, Feed, dose end: 104 week, group: systemic
mouse [7] = settings: Combined chronic toxicity/carcinogenicity, b6c3f1, Oral, Feed, dose end: 78 week, group: systemic
rat [8] = settings: Combined chronic toxicity/carcinogenicity; fischer; Oral; Feed; dose end: 78 week; group: systemic; systemic / pathology microscopic / spleen / fibrosis
rabbit [9] = settings: Prenatal developmental toxicity study, chinchilla, Oral, Gavage/Intubation, dose end: 27 GD
rat [10] = settings: Subchronic oral toxicity in rodents, wistar, Feed, dose end: 13 week
rat [11] = settings: Subchronic oral toxicity in rodents, wistar, Feed, dose end: 13 week, group: systemic
rat [12] = settings: Prenatal developmental toxicity study, wistar, Oral, Gavage/Intubation, dose end: 15 GD
rat [13] = settings: Combined chronic toxicity/carcinogenicity, sprague dawley, Oral, Feed, dose end: 104 week
mouse [14] = settings: Carcinogenicity, other, Oral, [Not Specified], dose end: 104 week, group: systemic
dog [15] = settings: Subchronic oral toxicity in nonrodent, beagle, Feed, dose end: 90 day, group: systemic, systemic / hematology / methemoglobin / methemoglobin
rat [16] = settings: Combined chronic toxicity/carcinogenicity, wistar, Oral, Feed, dose end: 106 week, group: systemic
rat [17] = settings: Multigenerational reproductive toxicity study, other, Oral, Feed, dose end: 2 generation
dog [18] = settings: Chronic toxicity, beagle, Oral, Feed, dose end: 80 day, group: systemic
dog [19] = settings: Chronic toxicity, beagle, Oral, Feed, dose end: 52 week, group: systemic
rat [20] = settings: Prenatal developmental toxicity study, wistar, Oral, Gavage/Intubation, dose end: 15 GD; remark: listed apart in the source
[21] = group: developmental, systemic / in life observation / body weight / fetal weight
[22] = group: maternal, reproductive / reproductive performance / resorptions / resorptions + systemic / in life observation / body weight / body weight gain + …
[23] = systemic / in life observation / mortality / mortality + reproductive / reproductive performance / premature delivery / premature delivery
[24] = group: offspring, systemic / in life observation / body weight / offspring (pup) weight + systemic / in life observation / body weight / offspring (pup) …
[25] = group: parental, systemic / in life observation / body weight / body weight + systemic / in life observation / body weight / body weight gain + systemic / …
[26] = systemic / pathology microscopic / liver / hypertrophy + systemic / pathology microscopic / liver / necrosis
[27] = systemic / pathology microscopic / liver / hypertrophy + systemic / pathology microscopic / liver / necrosis + systemic / pathology …
[28] = systemic / clinical chemistry / alanine aminotransferase (alt/sgpt) / alanine aminotransferase (alt/sgpt) + systemic / clinical chemistry / …
[29] = systemic / pathology microscopic / liver / vacuolization
[30] = systemic / pathology microscopic / liver / vacuolization + systemic / pathology microscopic / liver / hyperplasia + systemic / pathology …
[31] = systemic / in life observation / body weight / body weight
[32] = systemic / in life observation / body weight / body weight + systemic / pathology microscopic / spleen / hemangiosarcoma
[33] = group: developmental, systemic / in life observation / body weight / fetal weight + developmental / developmental malformation / bone / unossified
[34] = group: maternal, systemic / in life observation / body weight / body weight gain + systemic / in life observation / food consumption / food consumption + …
[35] = group: cholinesterase, cholinesterase / cholinesterase / cholinesterase / brain cholinesterase (che) + cholinesterase / cholinesterase / cholinesterase / …
[36] = group: systemic, systemic / hematology / anemia / anemia - macrocytic + systemic / hematology / erythrocyte (rbc) count differential / erythrocyte (rbc) + …
[37] = systemic / clinical chemistry / thyroxine (t4) / thyroxine (t4), total + systemic / hematology / methemoglobin / methemoglobin + systemic / …
[38] = systemic / hematology / methemoglobin / methemoglobin
[39] = group: developmental, developmental / developmental malformation / bone / incomplete ossification + developmental / developmental malformation / bone / unossified…
[40] = group: maternal, systemic / hematology / methemoglobin / methemoglobin
[41] = group: maternal, systemic / hematology / methemoglobin / methemoglobin + systemic / hematology / heinz body / heinz body + systemic / in life observation / …
[42] = group: cholinesterase, cholinesterase / cholinesterase / cholinesterase / brain cholinesterase (che)
[43] = group: cholinesterase, cholinesterase / cholinesterase / cholinesterase / erythrocyte cholinesterase (che) + cholinesterase / cholinesterase / cholinesterase / …
[44] = group: systemic, systemic / hematology / erythrocyte (rbc) count differential / erythrocyte (rbc) + systemic / hematology / hematocrit (hct) / hematocrit (…
[45] = systemic / hematology / anemia / anemia - heinz body + systemic / in life observation / body weight / body weight
[46] = systemic / hematology / anemia / anemia - hemolytic + systemic / hematology / erythrocyte (rbc) count differential / erythrocyte (rbc) + …
[47] = systemic / pathology microscopic / thyroid gland / hyperplasia
[48] = group: offspring, systemic / organ weight / kidney / relative to body weight + systemic / organ weight / liver / relative to body weight
[49] = group: parental, systemic / organ weight / spleen / absolute + systemic / organ weight / spleen / relative to body weight + systemic / hematology / anemia / …
[50] = group: parental, systemic / organ weight / spleen / absolute + systemic / organ weight / spleen / relative to body weight + systemic / in life observation / …
[51] = group: reproductive, reproductive / offspring survival early / litter size / litter size
[52] = systemic / hematology / methemoglobin / methemoglobin + systemic / urinalysis / appearance and color / appearance and color
[53] = systemic / hematology / methemoglobin / methemoglobin + systemic / clinical chemistry / triiodothyronine (t3) / triiodothyronine (t3), total
[54] = group: developmental, developmental / developmental malformation / bone / absent + developmental / developmental malformation / bone / bipartite ossification + …
[55] = group: maternal, systemic / in life observation / body weight / body weight gain + systemic / in life observation / food consumption / food consumption

## [O]=[Cr](=[O])([OH])[OH] [Chromic(VI) acid]
Mouse [1]; [21]
  LEL: 120 mg/kg/day
  LOAEL: > 120 mg/kg/day
  NEL: 60 mg/kg/day
  NOAEL: ≥ 120 mg/kg/day
Mouse [1]; [22]
  LEL: 120 mg/kg/day
  LOAEL: 120 mg/kg/day
  NEL: 60 mg/kg/day
  NOAEL: 60 mg/kg/day
Rabbit [2]; systemic / in life observation / mortality / mortality
  LOAEL: 2 mg/kg/day
Rabbit [2]; [23]
  LEL: 2 mg/kg/day
  NEL: 0.5 mg/kg/day
  NOAEL: 0.5 mg/kg/day

## CCOC(=O)COc1cc(-c2nn(C)c(OC(F)F)c2Cl)c(F)cc1Cl [Pyraflufen-ethyl]
Rat [3]; [24]
  LEL: 721 mg/kg/day
  LOAEL: 721 mg/kg/day
  NEL: 70.8 mg/kg/day
  NOAEL: 70.8 mg/kg/day
Rat [3]; [25]
  LEL: 721 mg/kg/day
  LOAEL: 721 mg/kg/day
  NEL: 70.8 mg/kg/day
  NOAEL: 70.8 mg/kg/day
Mouse [4]; [26]
  LEL: 98.3 mg/kg/day
  LOAEL: 98.3 mg/kg/day
Mouse [4]; [27]
  NEL: 19.6 mg/kg/day
  NOAEL: 19.6 mg/kg/day
Rat [5]; [28]
  LOAEL: 1490 mg/kg/day
  NEL: 85.6 mg/kg/day
  NOAEL: 456 mg/kg/day
Rat [5]; systemic / organ weight / brain / relative to body weight
  LEL: 456 mg/kg/day
Rat [6]; [29]
  LEL: 86.7 mg/kg/day
  LOAEL: 86.7 mg/kg/day
Rat [6]; [30]
  NEL: 17.2 mg/kg/day
  NOAEL: 17.2 mg/kg/day

## Nc1ccc(Cl)cc1 [4-Chloroaniline]
Mouse [7]; [31]
  LOAEL: 375 mg/kg/day
  NOAEL: < 375 mg/kg/day
Mouse [7]; [32]
  LEL: 375 mg/kg/day
  NEL: < 375 mg/kg/day
Rat [8]
  LEL: 12.5 mg/kg/day
  LOAEL: 12.5 mg/kg/day
  NEL: < 12.5 mg/kg/day
  NOAEL: < 12.5 mg/kg/day

## CCOC(=O)Nc1cccc(OC(=O)Nc2ccccc2)c1 [Desmedipham]
Rabbit [9]; [33]
  LEL: 450 mg/kg/day
  LOAEL: 450 mg/kg/day
  NEL: 150 mg/kg/day
  NOAEL: 150 mg/kg/day
Rabbit [9]; group: maternal, systemic / in life observation / body weight / body weight gain
  LOAEL: 450 mg/kg/day
Rabbit [9]; [34]
  LEL: 450 mg/kg/day
  NEL: 150 mg/kg/day
  NOAEL: 150 mg/kg/day
Rat [10]; [35]
  LEL: 15 mg/kg/day
  LOAEL: 15 mg/kg/day
  NEL: < 15 mg/kg/day
  NOAEL: < 15 mg/kg/day
Rat [10]; [36]
  LEL: 15 mg/kg/day
  LOAEL: 15 mg/kg/day
  NEL: < 15 mg/kg/day
  NOAEL: < 15 mg/kg/day
Rat [11]; [37]
  LOAEL: 26 mg/kg/day
  NOAEL: 5.2 mg/kg/day
Rat [11]; [38]
  LEL: 5.2 mg/kg/day
Rat [11]; systemic / hematology / methemoglobin / methemoglobin + systemic / clinical chemistry / thyroxine (t4) / thyroxine (t4), total + systemic / …
  NEL: 2.6 mg/kg/day
Rat [12]; [39]
  LEL: 500 mg/kg/day
  LOAEL: 500 mg/kg/day
  NEL: 100 mg/kg/day
  NOAEL: 100 mg/kg/day
Rat [12]; [40]
  LEL: 100 mg/kg/day
  LOAEL: 100 mg/kg/day
Rat [12]; [41]
  NEL: 10 mg/kg/day
  NOAEL: 10 mg/kg/day
Rat [13]; [42]
  LOAEL: > 54 mg/kg/day
  NOAEL: ≥ 54 mg/kg/day
Rat [13]; [43]
  LEL: 25 mg/kg/day
  NEL: 5.9 mg/kg/day
Rat [13]; [44]
  LOAEL: 54 mg/kg/day
  NEL: 4.7 mg/kg/day
  NOAEL: 18 mg/kg/day
Rat [13]; group: systemic, systemic / pathology microscopic / lung / focal cellular change + systemic / pathology microscopic / seminal vesicle / secretory fluid
  LEL: 18 mg/kg/day
Mouse [14]; systemic / hematology / anemia / anemia - heinz body
  LOAEL: 109 mg/kg/day
Mouse [14]; [45]
  LEL: 109 mg/kg/day
  NEL: 21.7 mg/kg/day
  NOAEL: 21.7 mg/kg/day
Dog [15]
  LEL: 4.97 mg/kg/day
  LOAEL: 4.97 mg/kg/day
  NEL: 0.17 mg/kg/day
  NOAEL: 0.17 mg/kg/day
Rat [16]; [46]
  LOAEL: 16.1 mg/kg/day
  NOAEL: 3.3 mg/kg/day
Rat [16]; [47]
  LEL: 3.18 mg/kg/day
  NEL: < 3.18 mg/kg/day
Rat [17]; group: offspring, systemic / in life observation / body weight / offspring (pup) weight
  LOAEL: 110 mg/kg/day
Rat [17]; group: offspring, systemic / in life observation / body weight / offspring (pup) weight + systemic / organ weight / heart / absolute + systemic / organ weight…
  NOAEL: 20 mg/kg/day
Rat [17]; [48]
  LEL: 4 mg/kg/day
  NEL: < 4 mg/kg/day
Rat [17]; [49]
  LEL: 20 mg/kg/day
  LOAEL: 20 mg/kg/day
Rat [17]; [50]
  NEL: 4 mg/kg/day
  NOAEL: 4 mg/kg/day
Rat [17]; [51]
  LEL: 110 mg/kg/day
  LOAEL: > 110 mg/kg/day
  NEL: 20 mg/kg/day
  NOAEL: ≥ 110 mg/kg/day
Dog [18]; [38]
  LOAEL: 12.5 mg/kg/day
  NOAEL: < 12.5 mg/kg/day
Dog [18]; [52]
  LEL: 12.5 mg/kg/day
  NEL: < 12.5 mg/kg/day
Dog [19]; [38]
  LOAEL: 9.6 mg/kg/day
  NOAEL: < 9.6 mg/kg/day
Dog [19]; [53]
  LEL: 9.6 mg/kg/day
  NEL: < 9.6 mg/kg/day
Rat [20]; [54]
  LEL: 1000 mg/kg/day
  LOAEL: 1000 mg/kg/day
  NEL: 100 mg/kg/day
  NOAEL: 100 mg/kg/day
Rat [20]; [55]
  LEL: 1000 mg/kg/day
  LOAEL: 1000 mg/kg/day
  NEL: 100 mg/kg/day
  NOAEL: 100 mg/kg/day
